Experimental data published in the NIST ThermoML archive (doi:10.1021/je060137q).

Experiments:
[1] = for surface tension liquid-gas: Pendant drop shape; for mass density: 101 kPa, Liquid
[2] = xn = mol fraction of the nth substance listed; conditions: for surface tension liquid-gas: Pendant drop shape; for mass density: 101 kPa, Liquid

Cc1ccc(C)c(C)c1 [1,2,4-trimethylbenzene]
[1]
Conditions	mass density [kg/m3]	surface tension liquid-gas [mN/m]
298.15 K	871.64	29.29
313.15 K	859.5	27.67

Cc1ccc(C)c(C)c1 [1,2,4-trimethylbenzene] + CCOC(=O)OCC
[2]
Conditions	mass density [kg/m3]	surface tension liquid-gas [mN/m]
298.15 K, x2 = 0	871.64	29.29
298.15 K, x2 = 0.0501	875.81	–
298.15 K, x2 = 0.1005	880.1	28.85
298.15 K, x2 = 0.1497	884.28	–
298.15 K, x2 = 0.1994	888.62	28.41
298.15 K, x2 = 0.2518	893.23	–
298.15 K, x2 = 0.2998	897.55	27.98
298.15 K, x2 = 0.3499	902.17	–
298.15 K, x2 = 0.4001	–	27.58
298.15 K, x2 = 0.4004	906.89	–
298.15 K, x2 = 0.4496	911.54	–
298.15 K, x2 = 0.5	916.38	27.23
298.15 K, x2 = 0.5494	921.22	–
298.15 K, x2 = 0.5997	926.24	–
298.15 K, x2 = 0.6497	931.3	–
298.15 K, x2 = 0.6998	936.41	–
298.15 K, x2 = 0.7505	941.72	–
298.15 K, x2 = 0.8001	947	–
298.15 K, x2 = 0.8499	952.36	–
298.15 K, x2 = 0.9	957.82	–
298.15 K, x2 = 0.95	963.45	–
313.15 K, x2 = 0	859.5	27.67
313.15 K, x2 = 0.0508	863.46	–
313.15 K, x2 = 0.1	–	27.16
313.15 K, x2 = 0.1005	867.43	–
313.15 K, x2 = 0.1486	871.36	–
313.15 K, x2 = 0.2002	–	26.69
313.15 K, x2 = 0.2012	875.71	–
313.15 K, x2 = 0.2507	879.88	–
313.15 K, x2 = 0.3005	–	26.23
313.15 K, x2 = 0.3007	884.17	–
313.15 K, x2 = 0.352	888.61	–
313.15 K, x2 = 0.3997	–	25.81
313.15 K, x2 = 0.4006	892.94	–
313.15 K, x2 = 0.4499	897.37	–
313.15 K, x2 = 0.4981	901.79	–
313.15 K, x2 = 0.5001	–	25.49
313.15 K, x2 = 0.5498	906.6	–
313.15 K, x2 = 0.597	911.06	–
313.15 K, x2 = 0.6481	915.93	–
313.15 K, x2 = 0.699	920.93	–
313.15 K, x2 = 0.7499	925.98	–
313.15 K, x2 = 0.8002	931.06	–
313.15 K, x2 = 0.8473	935.87	–
313.15 K, x2 = 0.9001	941.45	–
313.15 K, x2 = 0.9499	946.74	–

Cc1ccc(C)c(C)c1 [1,2,4-trimethylbenzene] + COC(=O)OC
[2]
Conditions	mass density [kg/m3]	surface tension liquid-gas [mN/m]
298.15 K, x2 = 0	871.64	29.29
298.15 K, x2 = 0.0499	876.93	–
298.15 K, x2 = 0.0999	882.55	28.93
298.15 K, x2 = 0.15	888.53	–
298.15 K, x2 = 0.2	894.76	28.64
298.15 K, x2 = 0.2498	901.22	–
298.15 K, x2 = 0.2995	908.07	–
298.15 K, x2 = 0.3001	–	28.34
298.15 K, x2 = 0.3502	915.53	–
298.15 K, x2 = 0.4001	923.26	28.21
298.15 K, x2 = 0.45	931.35	–
298.15 K, x2 = 0.5	939.96	28.08
298.15 K, x2 = 0.55	949.04	–
298.15 K, x2 = 0.5998	958.57	–
298.15 K, x2 = 0.65	968.9	–
298.15 K, x2 = 0.6999	979.71	–
298.15 K, x2 = 0.7497	991.22	–
298.15 K, x2 = 0.7997	1003.68	–
298.15 K, x2 = 0.8501	1017.1	–
298.15 K, x2 = 0.8999	1031.25	–
298.15 K, x2 = 0.9498	1046.57	–
313.15 K, x2 = 0	859.5	27.67
313.15 K, x2 = 0.0505	864.72	–
313.15 K, x2 = 0.1008	–	27.23
313.15 K, x2 = 0.1012	870.23	–
313.15 K, x2 = 0.15	875.75	–
313.15 K, x2 = 0.1999	–	26.82
313.15 K, x2 = 0.2008	881.92	–
313.15 K, x2 = 0.2491	887.96	–
313.15 K, x2 = 0.2996	–	26.51
313.15 K, x2 = 0.3003	894.87	–
313.15 K, x2 = 0.3498	901.76	–
313.15 K, x2 = 0.3991	–	26.29
313.15 K, x2 = 0.401	909.43	–
313.15 K, x2 = 0.4509	917.26	–
313.15 K, x2 = 0.5	–	26.11
313.15 K, x2 = 0.5008	925.59	–
313.15 K, x2 = 0.5507	934.32	–
313.15 K, x2 = 0.5998	943.46	–
313.15 K, x2 = 0.65	953.33	–
313.15 K, x2 = 0.6995	963.85	–
313.15 K, x2 = 0.7505	975.23	–
313.15 K, x2 = 0.7994	986.99	–
313.15 K, x2 = 0.8502	1000	–
313.15 K, x2 = 0.8976	1013.08	–
313.15 K, x2 = 0.9504	1028.72	–

Cc1cc(C)cc(C)c1 [1,3,5-trimethylbenzene]
[1]
Conditions	mass density [kg/m3]	surface tension liquid-gas [mN/m]
298.15 K	861.04	28.09
313.15 K	848.73	26.82

Cc1cc(C)cc(C)c1 [1,3,5-trimethylbenzene] + CCOC(=O)OCC
[2]
Conditions	mass density [kg/m3]	surface tension liquid-gas [mN/m]
298.15 K, x2 = 0	861.04	28.09
298.15 K, x2 = 0.05	865.43	–
298.15 K, x2 = 0.1	869.94	27.71
298.15 K, x2 = 0.15	874.61	–
298.15 K, x2 = 0.1999	879.3	27.37
298.15 K, x2 = 0.2501	884.12	–
298.15 K, x2 = 0.2999	889.01	27.01
298.15 K, x2 = 0.3498	893.96	–
298.15 K, x2 = 0.3999	899.08	26.76
298.15 K, x2 = 0.4499	904.28	–
298.15 K, x2 = 0.5006	909.64	26.56
298.15 K, x2 = 0.5497	914.93	–
298.15 K, x2 = 0.6001	920.47	–
298.15 K, x2 = 0.6498	926.07	–
298.15 K, x2 = 0.7007	931.9	–
298.15 K, x2 = 0.7495	937.62	–
298.15 K, x2 = 0.8004	943.71	–
298.15 K, x2 = 0.849	949.64	–
298.15 K, x2 = 0.9001	956.06	–
298.15 K, x2 = 0.9501	962.49	–
313.15 K, x2 = 0	848.73	26.82
313.15 K, x2 = 0.0502	852.95	–
313.15 K, x2 = 0.0997	–	26.36
313.15 K, x2 = 0.1001	857.31	–
313.15 K, x2 = 0.1497	861.7	–
313.15 K, x2 = 0.1995	–	25.95
313.15 K, x2 = 0.201	866.26	–
313.15 K, x2 = 0.248	870.64	–
313.15 K, x2 = 0.2987	875.33	–
313.15 K, x2 = 0.2997	–	25.57
313.15 K, x2 = 0.3417	879.45	–
313.15 K, x2 = 0.4001	–	25.22
313.15 K, x2 = 0.4009	885.2	–
313.15 K, x2 = 0.4487	889.94	–
313.15 K, x2 = 0.5001	–	24.93
313.15 K, x2 = 0.5005	895.18	–
313.15 K, x2 = 0.5501	900.3	–
313.15 K, x2 = 0.5995	905.52	–
313.15 K, x2 = 0.651	911.05	–
313.15 K, x2 = 0.6995	916.4	–
313.15 K, x2 = 0.7495	921.97	–
313.15 K, x2 = 0.8004	927.84	–
313.15 K, x2 = 0.8501	933.7	–
313.15 K, x2 = 0.9001	939.69	–
313.15 K, x2 = 0.9501	945.76	–

Cc1cc(C)cc(C)c1 [1,3,5-trimethylbenzene] + COC(=O)OC
[2]
Conditions	mass density [kg/m3]	surface tension liquid-gas [mN/m]
298.15 K, x2 = 0	861.04	28.09
298.15 K, x2 = 0.054	867.08	–
298.15 K, x2 = 0.1048	872.95	27.91
298.15 K, x2 = 0.1518	878.8	–
298.15 K, x2 = 0.1998	885.1	27.6
298.15 K, x2 = 0.2491	891.85	–
298.15 K, x2 = 0.3001	899.28	27.43
298.15 K, x2 = 0.3496	906.77	–
298.15 K, x2 = 0.3999	–	27.32
298.15 K, x2 = 0.4001	914.84	–
298.15 K, x2 = 0.4499	923.32	–
298.15 K, x2 = 0.4999	932.32	27.34
298.15 K, x2 = 0.5508	942.03	–
298.15 K, x2 = 0.5977	951.57	–
298.15 K, x2 = 0.6488	962.47	–
298.15 K, x2 = 0.7	974.17	–
298.15 K, x2 = 0.7514	986.83	–
298.15 K, x2 = 0.7999	999.6	–
298.15 K, x2 = 0.85	1013.67	–
298.15 K, x2 = 0.8999	1028.84	–
298.15 K, x2 = 0.9499	1045.18	–
313.15 K, x2 = 0	848.73	26.82
313.15 K, x2 = 0.0505	854.19	–
313.15 K, x2 = 0.1009	–	26.42
313.15 K, x2 = 0.1046	860.31	–
313.15 K, x2 = 0.15	865.69	–
313.15 K, x2 = 0.1994	–	26.04
313.15 K, x2 = 0.2007	872.13	–
313.15 K, x2 = 0.2489	878.45	–
313.15 K, x2 = 0.2985	885.42	–
313.15 K, x2 = 0.2996	–	25.8
313.15 K, x2 = 0.35	892.95	–
313.15 K, x2 = 0.3983	900.54	–
313.15 K, x2 = 0.4016	–	25.63
313.15 K, x2 = 0.4498	908.93	–
313.15 K, x2 = 0.5001	917.76	–
313.15 K, x2 = 0.5004	–	25.55
313.15 K, x2 = 0.5492	926.76	–
313.15 K, x2 = 0.5999	936.76	–
313.15 K, x2 = 0.6488	946.86	–
313.15 K, x2 = 0.6992	958.18	–
313.15 K, x2 = 0.7489	969.98	–
313.15 K, x2 = 0.7995	982.91	–
313.15 K, x2 = 0.8479	996.11	–
313.15 K, x2 = 0.8997	1011.33	–
313.15 K, x2 = 0.9501	1027.37	–

CCOC(=O)OCC [diethyl carbonate]
[1]
Conditions	mass density [kg/m3]
298.15 K	969.12
313.15 K	952.15

CCOC(=O)OCC [diethyl carbonate] + Cc1cc(C)cc(C)c1
[2], x1 = 1
Conditions	mass density [kg/m3]
298.15 K	969.12
313.15 K	952.15

CCOC(=O)OCC [diethyl carbonate] + Cc1ccc(C)c(C)c1
[2], x1 = 1
Conditions	mass density [kg/m3]
298.15 K	969.12
313.15 K	952.15

COC(=O)OC [dimethyl carbonate]
[1]
Conditions	mass density [kg/m3]
298.15 K	1062.97
313.15 K	1044.63

COC(=O)OC [dimethyl carbonate] + Cc1cc(C)cc(C)c1
[2], x1 = 1
Conditions	mass density [kg/m3]
298.15 K	1062.97
313.15 K	1044.63

COC(=O)OC [dimethyl carbonate] + Cc1ccc(C)c(C)c1
[2], x1 = 1
Conditions	mass density [kg/m3]
298.15 K	1062.97
313.15 K	1044.63
